From US20240299385A1 (ReWind Therapeutics NV, priority 2021, published 2024)

Target: T1, human GPR17 receptor (Homo sapiens, UniProt Q13304)
T1 construct: host or cells: HEK-293
Assay: Calcium mobilization functional assay (Fluo-8, FLIPR TETRA) in HEK-293 hGPR17 (Gα-q assay)
Assay type: cell-based
Conditions: antagonism of MDL29,951 (~EC80) induced Ca2+ signal; cell line (HEK-293 hGPR17 or HEK-293 Suchi5 hGPR17) not given
Summary of the method: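 Fluo-8-loaded HEK-293 hGPR17 cells (60 min dye loading, room temperature) were preincubated with compound for twenty minutes, then challenged with agonist MDL29,951 at ~EC80, 500 nM. Intracellular calcium release via Gα-q was recorded as FLIPR fluorescence for a further 2 minutes; compounds tested in duplicate.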

T1 sequence (Q13304 whole entry): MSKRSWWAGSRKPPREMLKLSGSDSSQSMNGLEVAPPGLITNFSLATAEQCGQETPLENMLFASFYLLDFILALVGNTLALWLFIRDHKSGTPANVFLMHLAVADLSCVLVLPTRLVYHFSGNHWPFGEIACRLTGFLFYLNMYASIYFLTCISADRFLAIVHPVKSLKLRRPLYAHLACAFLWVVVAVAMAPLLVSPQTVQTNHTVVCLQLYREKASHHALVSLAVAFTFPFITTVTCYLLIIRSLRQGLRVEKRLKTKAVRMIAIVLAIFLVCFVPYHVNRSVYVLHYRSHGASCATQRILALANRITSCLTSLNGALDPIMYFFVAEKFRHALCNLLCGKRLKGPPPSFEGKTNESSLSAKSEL

IC50 [nM]	SMILES
500 to 5000	N#Cc1ccc(NS(=O)(=O)c2c[nH]c(CC3CC3)c2)c(F)c1 [Cpd 622, N-(4-cyano-2-fluorophenyl)-5-(cyclopropylmethyl)-1H-pyrrole-3-sulfonamide]
500 to 5000	N#Cc1ccc(NS(=O)(=O)c2c[nH]cc2Cc2ccncc2)c(F)c1 [Cpd 624, N-(4-cyano-2-fluorophenyl)-4-(pyridin-4-ylmethyl)-1H-pyrrole-3-sulfonamide]
5000 to 50000	N#Cc1ccc(NS(=O)(=O)c2c[nH]cc2CCc2ccccc2)c(F)c1 [Cpd 625, N-(4-cyano-2-fluorophenyl)-4-(2-phenylethyl)-1H-pyrrole-3-sulfonamide]
< 500	O=S(=O)(Nc1cc(F)c(C(F)(F)F)cc1F)c1c[nH]c(-c2ccccc2)c1F [Cpd 626, N-[2,5-difluoro-4-(trifluoromethyl)phenyl]-4-fluoro-5-phenyl-1H-pyrrole-3-sulfonamide]
500 to 5000	O=S(=O)(Nc1cc(F)c(C(F)(F)F)cc1F)c1cc(-c2ccccc2)[nH]c1F [Cpd 627, N-[2,5-difluoro-4-(trifluoromethyl)phenyl]-2-fluoro-5-phenyl-1H-pyrrole-3-sulfonamide]
< 500	O=S(=O)(Nc1cc(F)c(OC(F)F)cc1F)c1c[nH]c(-c2cncs2)c1 [Cpd 628, N-[4-(difluoromethoxy)-2,5-difluorophenyl]-5-(1,3-thiazol-5-yl)-1H-pyrrole-3-sulfonamide]
< 500	O=S(=O)(Nc1cc(F)c(OC(F)F)cc1F)c1c[nH]c(-c2cscn2)c1 [Cpd 629, N-[4-(difluoromethoxy)-2,5-difluorophenyl]-5-(1,3-thiazol-4-yl)-1H-pyrrole-3-sulfonamide]
500 to 5000	O=S(=O)(Nc1ncc(C(F)(F)F)s1)c1c[nH]c(-c2ccccc2)c1 [Cpd 630, 5-phenyl-N-[5-(trifluoromethyl)-1,3-thiazol-2-yl]-1H-pyrrole-3-sulfonamide]
500 to 5000	N#Cc1cnc(NS(=O)(=O)c2c[nH]c(-c3ccccc3)c2)s1 [Cpd 631, N-(5-cyano-1,3-thiazol-2-yl)-5-phenyl-1H-pyrrole-3-sulfonamide]
< 500	N#CCOc1cc(F)c(NS(=O)(=O)c2c[nH]c(-c3ccccc3)c2F)cc1F [Cpd 632, N-[4-(cyanomethoxy)-2,5-difluorophenyl]-4-fluoro-5-phenyl-1H-pyrrole-3-sulfonamide]
< 500	COc1csc(-c2cc(S(=O)(=O)Nc3cc(F)c(OC(F)F)cc3F)c[nH]2)n1 [Cpd 633, N-[4-(difluoromethoxy)-2,5-difluorophenyl]-5-(4-methoxy-1,3-thiazol-2-yl)-1H-pyrrole-3-sulfonamide]
< 500	Cc1csc(-c2cc(S(=O)(=O)Nc3cc(F)c(OC(F)F)cc3F)c[nH]2)n1 [Cpd 634, N-[4-(difluoromethoxy)-2,5-difluorophenyl]-5-(4-methyl-1,3-thiazol-2-yl)-1H-pyrrole-3-sulfonamide]
< 500	O=S(=O)(Nc1cc(F)c(OC(F)F)cc1F)c1c[nH]c(-c2ccsn2)c1 [Cpd 635, N-[4-(difluoromethoxy)-2,5-difluorophenyl]-5-(1,2-thiazol-3-yl)-1H-pyrrole-3-sulfonamide]
< 500	O=S(=O)(Nc1cc(F)c(OC(F)F)cc1F)c1c[nH]c(-c2ncco2)c1 [Cpd 636, N-[4-(difluoromethoxy)-2,5-difluorophenyl]-5-(1,3-oxazol-2-yl)-1H-pyrrole-3-sulfonamide]
500 to 5000	O=S(=O)(Nc1cc(F)c(OC(F)F)cc1F)c1c[nH]c(-c2ncc(C(F)(F)F)s2)c1 [Cpd 637, N-[4-(difluoromethoxy)-2,5-difluorophenyl]-5-[5-(trifluoromethyl)-1,3-thiazol-2-yl]-1H-pyrrole-3-sulfonamide]
< 500	O=S(=O)(Nc1cc(F)c(OC(F)F)cc1F)c1c[nH]c(-c2ccns2)c1 [Cpd 638, N-[4-(difluoromethoxy)-2,5-difluorophenyl]-5-(1,2-thiazol-5-yl)-1H-pyrrole-3-sulfonamide]
< 500	O=S(=O)(Nc1cc(F)c(OC(F)F)cc1F)c1c[nH]c(-c2cnsc2)c1 [Cpd 639, N-[4-(difluoromethoxy)-2,5-difluorophenyl]-5-(1,2-thiazol-4-yl)-1H-pyrrole-3-sulfonamide]
< 500	N#Cc1cc(F)c(NS(=O)(=O)c2c[nH]c(-c3ccoc3)c2)cc1F [Cpd 640, N-(4-cyano-2,5-difluorophenyl)-5-(furan-3-yl)-1H-pyrrole-3-sulfonamide]
< 500	N#Cc1ccc(NS(=O)(=O)c2c[nH]c(-c3cncs3)c2)c(F)c1 [Cpd 641, N-(4-cyano-2-fluorophenyl)-5-(1,3-thiazol-5-yl)-1H-pyrrole-3-sulfonamide]
< 500	N#Cc1cc(F)c(NS(=O)(=O)c2c[nH]c(-c3cscn3)c2)cc1F [Cpd 642, N-(4-cyano-2,5-difluorophenyl)-5-(1,3-thiazol-4-yl)-1H-pyrrole-3-sulfonamide]

IC50 [nM]	SMILES
< 500	[2H]C([2H])(c1cccc(F)c1)c1c[nH]cc1S(=O)(=O)Nc1cc(F)c(C#N)cc1F [Cpd 643, N-(4-cyano-2,5-difluorophenyl)-4-((3-fluorophenyl)methyl-d2)-1H-pyrrole-3-sulfonamide]
5000 to 50000	N#Cc1sc(NS(=O)(=O)c2c[nH]c(-c3ccccc3)c2)cc1F [Cpd 644, N-(5-cyano-4-fluorothiophen-2-yl)-5-phenyl-1H-pyrrole-3-sulfonamide]
< 500	N#Cc1ccc(F)c(-c2cc(S(=O)(=O)Nc3cc(F)c(C#N)cc3F)c[nH]2)c1 [Cpd 645, N-(4-cyano-2,5-difluorophenyl)-5-(5-cyano-2-fluorophenyl)-1H-pyrrole-3-sulfonamide]
< 500	N#Cc1cc(F)c(NS(=O)(=O)c2c[nH]c(-c3ccsn3)c2)cc1F [Cpd 646, N-(4-cyano-2,5-difluorophenyl)-5-(1,2-thiazol-3-yl)-1H-pyrrole-3-sulfonamide]
< 500	N#Cc1cc(F)c(NS(=O)(=O)c2c[nH]c(-c3cncs3)c2)cc1F [Cpd 647, N-(4-cyano-2,5-difluorophenyl)-5-(1,3-thiazol-5-yl)-1H-pyrrole-3-sulfonamide]
< 500	N#Cc1cc(F)c(NS(=O)(=O)c2c[nH]c(-c3ncc(Cl)s3)c2)cc1F [Cpd 648, 5-(5-chloro-1,3-thiazol-2-yl)-N-(4-cyano-2,5-difluorophenyl)-1H-pyrrole-3-sulfonamide]
< 500	Cc1csc(-c2cc(S(=O)(=O)Nc3cc(F)c(C#N)cc3F)c[nH]2)n1 [Cpd 649, N-(4-cyano-2,5-difluorophenyl)-5-(4-methyl-1,3-thiazol-2-yl)-1H-pyrrole-3-sulfonamide]
< 500	N#Cc1ccc(F)c(-c2cc(S(=O)(=O)Nc3cc(F)c(OC(F)F)cc3F)c[nH]2)c1 [Cpd 650, 5-(5-cyano-2-fluorophenyl)-N-[4-(difluoromethoxy)-2,5-difluorophenyl]-1H-pyrrole-3-sulfonamide]
< 500	N#Cc1cc(F)c(NS(=O)(=O)c2c[nH]c(-c3coc4ccccc34)c2)cc1F [Cpd 651, 5-(1-benzofuran-3-yl)-N-(4-cyano-2,5-difluorophenyl)-1H-pyrrole-3-sulfonamide]
< 500	COc1c(F)cccc1-c1cc(S(=O)(=O)Nc2cc(F)c(C#N)cc2F)c[nH]1 [Cpd 652, N-(4-cyano-2,5-difluorophenyl)-5-(3-fluoro-2-methoxyphenyl)-1H-pyrrole-3-sulfonamide]
< 500	Cc1occc1-c1cc(S(=O)(=O)Nc2cc(F)c(C(F)(F)F)cc2F)c[nH]1 [Cpd 653, N-[2,5-difluoro-4-(trifluoromethyl)phenyl]-5-(2-methylfuran-3-yl)-1H-pyrrole-3-sulfonamide]
< 500	N#Cc1cc(F)c(NS(=O)(=O)c2c[nH]c(-c3cccc(F)c3)c2)cc1F [Cpd 654, N-(4-cyano-2,5-difluorophenyl)-5-(3-fluorophenyl)-1H-pyrrole-3-sulfonamide]
< 500	O=S(=O)(Nc1nc(F)c(OCCF)cc1F)c1c[nH]c(-c2cc(Cl)ccc2F)c1 [Cpd 655, 5-(5-chloro-2-fluorophenyl)-N-[3,6-difluoro-5-(2-fluoroethoxy)pyridin-2-yl]-1H-pyrrole-3-sulfonamide]
500 to 5000	N#Cc1cc(F)c(NS(=O)(=O)c2c[nH]c(-c3ccns3)c2)cc1F [Cpd 656, N-(4-cyano-2,5-difluorophenyl)-5-(1,2-thiazol-5-yl)-1H-pyrrole-3-sulfonamide]
500 to 5000	N#Cc1cc(F)c(NS(=O)(=O)c2c[nH]c(-c3cnsc3)c2)cc1F [Cpd 657, N-(4-cyano-2,5-difluorophenyl)-5-(1,2-thiazol-4-yl)-1H-pyrrole-3-sulfonamide]
500 to 5000	N#Cc1cc(F)c(NS(=O)(=O)c2c[nH]c(-c3ncco3)c2)cc1F [Cpd 658, N-(4-cyano-2,5-difluorophenyl)-5-(1,3-oxazol-2-yl)-1H-pyrrole-3-sulfonamide]
< 500	Cc1csc(-c2cc(S(=O)(=O)Nc3cc(F)c(OC(F)F)cc3F)c[nH]2)c1 [Cpd 659, N-[4-(difluoromethoxy)-2,5-difluorophenyl]-5-(4-methylthiophen-2-yl)-1H-pyrrole-3-sulfonamide]
< 500	COc1csc(-c2cc(S(=O)(=O)Nc3cc(F)c(OC(F)F)cc3F)c[nH]2)c1 [Cpd 660, N-[4-(difluoromethoxy)-2,5-difluorophenyl]-5-(4-methoxythiophen-2-yl)-1H-pyrrole-3-sulfonamide]
< 500	COc1csc(-c2cc(S(=O)(=O)Nc3cc(F)c(C#N)cc3F)c[nH]2)n1 [Cpd 661, N-(4-cyano-2,5-difluorophenyl)-5-(4-methoxy-1,3-thiazol-2-yl)-1H-pyrrole-3-sulfonamide]
< 500	N#Cc1ccc(F)c(-c2cc(S(=O)(=O)Nc3nc(F)c(OCCF)cc3F)c[nH]2)c1 [Cpd 662, 5-(5-cyano-2-fluorophenyl)-N-[3,6-difluoro-5-(2-fluoroethoxy)pyridin-2-yl]-1H-pyrrole-3-sulfonamide]
